These molecules were tested against T1, Full-length USP19 (Homo sapiens, UniProt O94966) (assay: USP19 fluorescence polarisation (FP) homogeneous assay with Ubiquitin-Lys-TAMRA substrate). Details: 2.5 nM USP19, 30 min pre-incubation, average of at least two duplicate experiments.
T1 construct: Full-length USP19 was purchased from Boston Biochem (E-576); purchased Boston Biochem E-576
T1 sequence (O94966 1-1318): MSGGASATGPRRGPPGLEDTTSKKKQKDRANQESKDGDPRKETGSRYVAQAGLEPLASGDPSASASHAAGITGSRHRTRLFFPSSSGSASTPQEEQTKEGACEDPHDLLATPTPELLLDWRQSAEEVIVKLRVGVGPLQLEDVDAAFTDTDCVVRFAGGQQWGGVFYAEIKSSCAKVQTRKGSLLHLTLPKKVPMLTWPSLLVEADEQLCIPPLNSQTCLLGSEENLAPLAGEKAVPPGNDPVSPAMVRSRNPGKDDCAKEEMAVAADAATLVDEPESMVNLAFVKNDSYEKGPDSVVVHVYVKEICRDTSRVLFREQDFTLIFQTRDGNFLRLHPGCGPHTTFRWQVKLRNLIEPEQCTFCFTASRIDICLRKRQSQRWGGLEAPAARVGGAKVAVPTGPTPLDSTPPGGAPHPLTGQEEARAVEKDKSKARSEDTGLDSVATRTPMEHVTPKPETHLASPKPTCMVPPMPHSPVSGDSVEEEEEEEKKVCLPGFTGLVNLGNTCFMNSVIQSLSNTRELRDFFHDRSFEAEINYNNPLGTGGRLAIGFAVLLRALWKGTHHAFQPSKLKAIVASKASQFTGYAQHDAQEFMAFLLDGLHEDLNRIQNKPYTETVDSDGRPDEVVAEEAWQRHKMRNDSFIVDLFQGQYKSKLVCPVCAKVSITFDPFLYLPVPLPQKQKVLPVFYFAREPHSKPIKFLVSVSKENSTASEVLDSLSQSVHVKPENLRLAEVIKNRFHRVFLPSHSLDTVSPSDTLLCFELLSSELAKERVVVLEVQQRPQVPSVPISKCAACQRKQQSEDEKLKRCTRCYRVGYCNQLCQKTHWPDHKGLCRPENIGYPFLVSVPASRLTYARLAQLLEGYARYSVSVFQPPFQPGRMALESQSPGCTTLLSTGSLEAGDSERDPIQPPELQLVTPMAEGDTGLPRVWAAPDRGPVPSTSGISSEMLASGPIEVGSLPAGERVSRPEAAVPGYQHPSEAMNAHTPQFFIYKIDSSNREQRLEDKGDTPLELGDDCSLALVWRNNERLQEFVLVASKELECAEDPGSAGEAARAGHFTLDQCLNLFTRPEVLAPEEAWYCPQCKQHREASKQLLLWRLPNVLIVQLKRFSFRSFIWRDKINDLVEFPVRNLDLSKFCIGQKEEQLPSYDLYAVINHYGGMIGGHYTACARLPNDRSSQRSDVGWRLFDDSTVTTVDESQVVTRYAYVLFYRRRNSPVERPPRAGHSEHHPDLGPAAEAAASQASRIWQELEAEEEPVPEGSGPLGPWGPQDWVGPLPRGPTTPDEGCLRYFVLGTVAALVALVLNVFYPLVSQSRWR
Type: biochemical
Outline: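 Full-length USP19 preincubated 30 min at RT with inhibitor (200 μM to 2 μM series, 8–18 points) before adding 500 nM Ubiquitin-Lys-TAMRA substrate.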

Row | Compound | IC50
1 | O=C(N1CCC(O)(Cn2ccc(-c3ccccc3)cc2=O)C2(CCCC2)C1)N1CCNCC1c1cc(F)ccc1F [Example 374, 1-(((S)-7-((R)-2-(2,5-Difluorophenyl)piper-azine-1-carbonyl)-10-hydroxy-7-azaspiro[4.5]decan-10-yl)methyl)-4-phenylpyridin-2(1H)-one] | < 500 nM
2 | O=C(N1CC[C@@](O)(Cn2cnc(-c3cccc(F)c3)cc2=O)C2(CCCC2)C1)N1CCNC[C@H]1c1cc(F)ccc1F [Example 376, 3-(((S)-7-((R)-2-(2,5-Difluorophenyl)piper-azine-1-carbonyl)-10-hydroxy-7-azaspiro[4.5]decan-10-yl)methyl)-6-(3-fluorophenyl)pyrimi-din-4(3H)-one] | < 500 nM
3 | O=C(N1CC[C@@](O)(Cn2cnc(C3CC3)cc2=O)C2(CCCC2)C1)N1CCNC[C@H]1c1cccc(F)c1 [Example 377, 6-Cyclopropyl-3-(((S)-7-((R)-2-(3-fluoro-phenyl)piperazine-1-carbonyl)-10-hydroxy-7-aza-spiro[4.5]decan-10-yl)methyl)pyrimidin-4(3H)-one] | < 500 nM
4 | O=C(N1CC[C@@](O)(Cn2cnc(C3CC3)cc2=O)C2(CCCC2)C1)N1CCNC[C@H]1c1cc(F)ccc1F [Example 378, 6-Cyclopropyl-3-(((S)-7-((R)-2-(2,5-difluorophenyl)piper-azine-1-carbonyl)-10-hydroxy-7-aza-spiro[4.5]decan-10-yl)methyl)pyrimidin-4(3H)-one] | < 500 nM
5 | Cc1cccc(-c2cc(=O)n(C[C@]3(O)CCN(C(=O)N4CCNC[C@H]4c4cc(F)ccc4F)CC34CCCC4)cn2)c1 [Example 386, 3-(((S)-7-((R)-2-(2,5-Difluorophenyl)piper-azine-1-carbonyl)-10-hydroxy-7-azaspiro[4.5]decan-10-yl)methyl)-6-(m-tolyl)pyrimidin-4(3H)-one] | < 500 nM
6 | O=C(N1CC[C@@](O)(Cn2cnc(N3CC4CC4C3)cc2=O)C2(CCCC2)C1)N1CCNC[C@H]1c1cc(F)ccc1F (stereo partly drawn) [Example 389, 6-(3-Aza-bicyclo[3.1.0]hexan-3-yl)-3-(((S)-7-((R)-2-(2,5-difluoro-phenyl)piperazine-1-carbonyl)-10-hydroxy-7-aza-spiro[4.5]decan-10-yl)methyl)pyrimidin-4(3H)-one] | < 500 nM
7 | C[C@@]1(c2ccccc2)CNCCN1C(=O)N1CC[C@@](O)(Cn2cnc(-c3ccccc3)cc2=O)C2(CCCC2)C1 [Example 390, 3-(((S)-10-Hydroxy-7-((R)-2-methyl-2-phenylpiperazine-1-carbonyl)-7-azaspiro[4.5]decan-10-yl)methyl)-6-phenylpyrimidin-4(3H)-one] | < 500 nM
8 | O=C(N1CC[C@@](O)(Cn2ccc(-c3ccccc3F)cc2=O)C2(CCCC2)C1)N1CCNC[C@H]1c1cccc(F)c1 [Example 391, 4-(2-Fluorophenyl)-1-(((S)-7-((R)-2-(3-fluorophenyl)pipera-zine-1-carbonyl)-10-hydroxy-7-azaspiro[4.5]decan-10-yl)methyl)pyri-din-2(1H)-one] | < 500 nM
9 | O=C(N1CC[C@@](O)(Cn2cnc(-c3ccccc3F)cc2=O)C2(CCCC2)C1)N1CCNC[C@H]1c1cc(F)cc(F)c1 [Example 392, 3-(((S)-7-((R)-2-(3,5-Difluoro-phenyl)piper-azine-1-carbonyl)-10-hydroxy-7-azaspiro[4.5]decan-10-yl)methyl)-6-(2-fluorophenyl)pyrimi-din-4(3H)-one] | < 500 nM
10 | O=C(N1CC[C@@](O)(Cn2cnc(-c3ccccc3)cc2=O)C2(CCCC2)C1)N1CCSC[C@H]1c1cc(F)ccc1F [Example 393, 3-(((S)-7-((R)-3-(2,5-Difluorophenyl)thio-morpholine-4-carbo-nyl)-10-hydroxy-7-azaspiro[4.5]decan-10-yl)methyl)-6-phenylpyrimidin-4(3H)-one] | < 500 nM
11 | O=C(N1CC[C@@](O)(Cn2cnc(-c3ccccc3)cc2=O)C2(CCCC2)C1)N1CCS(=O)(=O)C[C@H]1c1cc(F)ccc1F [Example 394, 3-(((S)-7-((R)-3-(2,5-Difluoro-phenyl)-1,1-dioxidothio-morpholine-4-carbonyl)-10-hydroxy-7-aza-spiro[4.5]decan-10-yl)methyl)-6-phenylpyrimidin-4(3H)-one] | < 500 nM
12 | N[C@H]1CCN(C(=O)N2CC[C@@](O)(Cn3cnc(-c4ccccc4)cc3=O)C3(CCCC3)C2)[C@H](c2ccccc2)C1 [Example 396, 3-(((S)-7-((2S,4S)-4-Amino-2-phenyl-piperidine-1-car-bonyl)-10-hydroxy-7-azaspiro[4.5]de-can-10-yl)meth-yl)-6-phenyl-pyrimidin-4(3H)-one] | < 500 nM

The remaining lines, values ahead:

Row | IC50 | Compound
13 | < 500 nM | O=C(N1CC[C@@](O)(Cn2cnc(-c3cccc(F)c3)cc2=O)C2(CCCC2)C1)N1CCNC[C@H]1c1cccc(F)c1 [Example 375, 6-(3-Fluorophenyl)-3-(((S)-7-((R)-2-(3-fluorophenyl)pipera-zine-1-carbonyl)-10-hydroxy-7-aza-spiro[4.5]decan-10-yl)methyl)pyrimidin-4(3H)-one]
14 | < 500 nM | O=C(N1CC[C@@](O)(Cn2cnc(-c3ccccc3)cc2=O)C2(CCCC2)C1)N1CCNCC1c1ccc(F)c(F)c1 (stereo partly drawn) [Example 379, 3-(((10S)-7-(2-(3,4-Difluorophenyl)piper-azine-1-carbonyl)-10-hydroxy-7-azaspiro[4.5]decan-10-yl)methyl)-6-phenylpyrimidin-4(3H)-one]
15 | < 500 nM | COc1cccc(F)c1-c1cc(=O)n(C[C@]2(O)CCN(C(=O)N3CCNC[C@H]3c3ccccc3)CC23CCCC3)cn1 [Example 381, 6-(2-Fluoro-6-meth-oxyphenyl)-3-(((S)-10-hydroxy-7-((R)-2-phenylpiperazine-1-carbonyl)-7-aza-spiro[4.5]decan-10-yl)methyl)pyrimidin-4(3H)-one]
16 | < 500 nM | Cc1cccc(F)c1-c1cc(=O)n(C[C@]2(O)CCN(C(=O)N3CCNC[C@H]3c3ccccc3)CC23CCCC3)cn1 [Example 382, 6-(2-Fluoro-6-meth-ylphenyl)-3-(((S)-10-hydroxy-7-((R)-2-phenylpiperazine-1-carbonyl)-7-aza-spiro[4.5]decan-10-yl)methyl)pyrimidin-4(3H)-one]
17 | < 500 nM | COc1c(F)cccc1-c1cc(=O)n(C[C@]2(O)CCN(C(=O)N3CCNC[C@H]3c3ccccc3)CC23CCCC3)cn1 [Example 383, 6-(3-Fluoro-2-methoxyphenyl)-3-(((S)-10-hydroxy-7-((R)-2-phenyl-piperazine-1-carbonyl)-7-aza-spiro[4.5]decan-10-yl)methyl)pyrimidin-4(3H)-one]
18 | < 500 nM | COc1ccc(F)cc1-c1cc(=O)n(C[C@]2(O)CCN(C(=O)N3CCNC[C@H]3c3ccccc3)CC23CCCC3)cn1 [Example 384, 6-(5-Fluoro-2-methoxyphenyl)-3-(((S)-10-hydroxy-7-((R)-2-phenylpipera-zine-1-carbonyl)-7-azaspiro[4.5]decan-10-yl)methyl)pyrimi-din-4(3H)-one]
19 | < 500 nM | O=C(N1CC[C@@](O)(Cn2cnc(-c3cccc(F)c3F)cc2=O)C2(CCCC2)C1)N1CCNC[C@H]1c1ccccc1 [Example 385, 6-(2,3-Difluoro-phenyl)-3-(((S)-10-hydroxy-7-((R)-2-phenylpiperazine-1-carbonyl)-7-aza-spiro[4.5]decan-10-yl)methyl)pyrimidin-4(3H)-one]
20 | < 500 nM | O=C(N1CC[C@@](O)(Cn2cnc(-c3ccccc3F)cc2=O)C2(CCCC2)C1)N1CCNC[C@H]1c1cc(F)ccc1F [Example 387, 3-(((S)-7-((R)-2-(2,5-Difluorophenyl)piper-azine-1-carbonyl)-10-hydroxy-7-azaspiro[4.5]decan-10-yl)methyl)-6-(2-fluorophenyl)pyrimi-din-4(3H)-one]
21 | < 500 nM | COc1ccccc1-c1cc(=O)n(C[C@]2(O)CCN(C(=O)N3CCNC[C@H]3c3cc(F)ccc3F)CC23CCCC3)cn1 [Example 388, 3-(((S)-7-((R)-2-(2,5-Difluoro-phenyl)piperazine-1-carbonyl)-10-hydroxy-7-azaspiro [4.5]decan-10-yl)methyl)-6-(2-meth-oxyphenyl)pyrimi-din-4(3H)-one]

— patent US20220033397A1, “PHARMACEUTICAL COMPOUNDS AND THEIR USE AS INHIBITORS OF UBIQUITIN SPECIFIC PROTEASE 19 (USP19)” (ALMAC DISCOVERY LIMITED, priority 2018, published 2022)
